Data set [1] is described as follows: electroshock test (MES), rat. In kind it is in vivo. To be noted: read-out: ED50 (limits) RAT MES. On the procedure:
(§1) The pharmacological activity of the compound of the invention has been determined according to the following procedures. Its anticonvulsant activity was determined in the metrazol antagonism test in both mice and rats (MMS) (Soaje-Echaque E; Lim RKS, J Pharmac Exp Ther 1962, 138, 224; Desmedt LKC; Niemegeers CJE; Lewi PJ; Janssen PAJ, Arzneim-Forsch (Drug Res), 1976, 26, 1592) and the electroshock test (MES) (Perry JK; Tower DB; Woodbury DM; Walter RD, "Experimental Models of Epilepsy", editor Purpura DP; Raven Press: New York, 1972, 434).

Data set [2] can be described thus: electroshock test (MES), mouse. Type of data set: in vivo. On the procedure:
as §1

Data set [3] can be described thus: metrazol antagonism test (MMS), mouse. In kind it is in vivo. To be noted: read-out: ED50 (limits) MOUSE MMS. The procedure:
as §1

Data set [4] in a line: anticonvulsant tests (MES and MMS), rat and mouse, summary. Type of data set: in vivo. Particulars: for anticonvulsant activity: electrically and chemically induced seizures. The procedure:
as §1

The next data set can be described thus: in vivo. Particulars: for TD50 ip at time of peak effect / TD50 po at 1 hour: rotarod; for TD50 ip at time of peak effect: at time of peak anticonvulsant effect; for TD50 po at 1 hour: dose at which 50% of trained animals fall off the rotarod. On the procedure: An assessment of the neurotoxicity of the compound was carried out in mice using the rotarod test (Collier, HOJ; Fieller, EC; Hall, RA, Analyst, 1949, 74, 592).
^a Dose at which 50% of trained animals fall off the rotarod.
^b Protective index is calculated by dividing the TD50 (ip at
time of peak anticonvulsant effect) by the ED50 under the same
(The rotarod test checks motor coordination on a turning rod.)

Data set [5] is described as follows: metrazol antagonism test (MMS), rat. In kind it is in vivo. Particulars: read-out: ED50 (limits) RAT MMS. On the procedure: as §1
The mark [6] stands for this setting: ip, mouse, MES, i.p., at time of peak effect, read-out: ED50 (limits) MES at time of peak effect.
Setting [7] is: mouse, MES, oral, t=1 hour, read-out: ED50 (limits) MOUSE MES.
[8] abbreviates: mouse, in vivo, ip, protective index (PI).

The record followed here is US4782072A, “Thiadiazole derivative” (Reckitt & Colman Products Limited, priority 1986, dated 1988).

For `NCc1nnc(-c2ccccc2-c2ccccc2)s1` [Example, 2-Aminomethyl-5-(2-biphenylyl)-1,3,4-thiadiazole], the ED50 stood at 10 mg/kg in data set [1] (rat, MES, oral, t=1 hour); 7 mg/kg in data set [2] (setting [6]); 22 mg/kg in data set [2] (setting [7]); 20 mg/kg in data set [3] (mouse, MMS, oral, t=1 hour); 9 mg/kg in data set [5] (rat, MMS, oral, t=1 hour). In data set [2] (mouse, MES, i.p.), the “Time of peak effect” value was found to be 10 min. The rate of absorption entry in data set [4] (inferred from time of peak effect, ip and oral, in words) is on record as “very rapid rate of absorption”. For the same molecule, in data set [4] (intraperitoneal and oral routes, after dosing), the “time of peak effect by both methods of administration” value was “ten and twenty”. Also, the anticonvulsant activity entry in data set [4] (rat and mouse, in words, listed as compound of Formula 1) is “potent anticonvulsant activity”; in data set [4] (rat and mouse, in words, listed as the compound), “potent anticonvulsant, blocking both electrically and chemically induced seizures”. The “effectiveness by intraperitoneal and oral routes” value in data set [4] (rat and mouse, in words) is “effective by both the intraperitoneal and oral routes”. Further, the “potency relative to established anticonvulsant drugs” value in data set [4] (rat and mouse, in words) is “comparable with established anticonvulsant drugs”. Further, the selectivity ratio in the data set “in vivo” (setting [8]) is 6.5. Moreover, the “TD50 ip at time of peak effect” value in “in vivo” (ip) is 45(23-68) mg/kg. For the same molecule, in “in vivo”, the “TD50 po at 1 hour” value is 318(230-471) mg/kg.
Consider `NC(=O)N1c2ccccc2C=Cc2ccccc21` [carbamazepine], for which the ED50 in data set [1] (rat, MES, oral, t=1 hour) amounted to 4 mg/kg; in data set [2] (setting [6]), 6 mg/kg; in data set [2] (setting [7]) it was 20 mg/kg; in data set [3] (mouse, MMS, oral, t=1 hour), 11 mg/kg; in data set [5] (rat, MMS, oral, t=1 hour) it was 3 mg/kg. Further, in data set [2] (mouse, MES, i.p.), the “Time of peak effect” value turned out to be 20 min. The “protective index (PI)” value in “in vivo” (in vivo, ip) is recorded as 11.1. In “in vivo” (setting [8]), the selectivity ratio turned out to be 11. The “TD50 ip at time of peak effect” value in “in vivo” (ip) was 67(29-108) mg/kg. In the data set “in vivo”, the “TD50 po at 1 hour” value is reported as 166(104-282) mg/kg.
In the case of `CCC1(c2ccccc2)C(=O)NC(=O)NC1=O` [phenobarbital], the ED50 in data set [1] (Rattus norvegicus, po, 1 h) amounted to 9 mg/kg; in data set [2] (Mus musculus, ip, read-out: ED50 (limits) MES at time of peak effect) it was 18 mg/kg; in data set [2] (Mus musculus, po, 1 h, read-out: ED50 (limits) MOUSE MES), 12 mg/kg; in data set [3] (Mus musculus, po, 1 h), 4 mg/kg; in data set [5] (Rattus norvegicus, po, 1 h), 4 mg/kg. Also, the “Time of peak effect” value in data set [2] (mouse, MES, i.p.) came to 30 min. Further, the “TD50 ip at time of peak effect” value in “in vivo” (ip) is listed as 86(54-140) mg/kg. Also, in “in vivo”, the “TD50 po at 1 hour” value was 68(52-92) mg/kg.
Turning to `O=C1NC(=O)C(c2ccccc2)(c2ccccc2)N1` [phenytoin], the ED50 in data set [1] (rat, MES, oral, t=1 hour) is 14 mg/kg; in data set [2] (setting [6]) it was 8 mg/kg; in data set [2] (setting [7]), 8 mg/kg; in data set [3] (mouse, MMS, oral, t=1 hour), 8 mg/kg; in data set [5] (rat, MMS, oral, t=1 hour), 12 mg/kg. Also, the “Time of peak effect” value in data set [2] (mouse, MES, i.p.) stood at 60 min. For the same molecule, in the data set “in vivo” (in vivo, ip), the selectivity ratio amounted to 7. Also, in “in vivo” (ip), the “TD50 ip at time of peak effect” value is given as 56(27-74) mg/kg. Further, in “in vivo”, the “TD50 po at 1 hour” value was 216(154-239) mg/kg.

What is called ED50 is the dose at which the effect has come halfway, by size or by number of responders.
